# Measurements taken from patent US20260355165A1, “2,3,4,9-TETRAHYDRO-1H-PYRIDO[3,4-B]INDOLE DERIVATIVES AS ESTROGEN RECEPTOR MODULATORS FOR THE TREATMENT OF CANCER” (Olema Pharmaceuticals, Inc., priority 2022, published 2026).
# Molecular target: T1, estrogen receptor (Homo sapiens, UniProt P03372)
# T1 construct: endogenous in cells; host or cells: ECC-1 cells
# T1 sequence (P03372 1-595): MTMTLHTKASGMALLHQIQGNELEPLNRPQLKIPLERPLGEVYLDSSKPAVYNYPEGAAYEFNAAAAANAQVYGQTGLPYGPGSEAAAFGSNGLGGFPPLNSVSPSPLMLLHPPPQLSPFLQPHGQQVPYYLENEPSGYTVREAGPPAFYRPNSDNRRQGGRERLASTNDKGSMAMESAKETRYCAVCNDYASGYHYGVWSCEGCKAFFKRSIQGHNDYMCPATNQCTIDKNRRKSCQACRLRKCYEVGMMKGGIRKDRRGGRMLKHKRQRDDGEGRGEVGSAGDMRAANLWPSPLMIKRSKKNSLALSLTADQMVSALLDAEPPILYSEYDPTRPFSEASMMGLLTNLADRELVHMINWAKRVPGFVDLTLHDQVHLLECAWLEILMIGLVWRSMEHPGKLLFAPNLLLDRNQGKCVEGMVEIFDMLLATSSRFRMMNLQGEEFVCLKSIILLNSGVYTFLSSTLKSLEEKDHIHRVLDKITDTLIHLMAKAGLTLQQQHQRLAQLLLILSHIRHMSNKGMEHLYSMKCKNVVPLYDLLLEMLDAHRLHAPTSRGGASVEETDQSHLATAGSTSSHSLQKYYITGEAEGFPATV
# Test: AP assay (alkaline phosphatase activity in ECC-1 cells), agonist mode (absence of E2) and antagonist mode (presence of 500 pM E2)
# Assay type: cell-based
# Conditions: 3 days, AP activity normalized to 500 pM E2 alone, agonist and antagonist mode combined
# Outline: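 Read-out is absorbance at 405 nm from p-nitrophenyl phosphate cleavage (40 min, 42 °C), expressed relative to 500 pM E2 alone. Compounds were applied to ECC-1 cells in hormone-depleted medium for 3 days, either alone (agonist) or alongside 500 pM E2 (antagonist).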
row,Compound,"Activity (estrogen receptor modulation, e.g., agonism and antagonism)"
1,"C[C@@H]1Cc2c([nH]c3ccccc23)[C@@H](c2ccc3oc(CN4CC(CF)C4)cc3c2)N1CC(C)(C)F [Compound I-57, (1R,3R)-1-[2-[[3-(fluoromethyl)azetidin-1-yl]methyl]benzofuran-5-yl]-2-(2-fluoro-2-methyl-propyl)-3-methyl-1,3,4,9-tetrahydropyrido[3,4-b]indole]",+++ (estrogen receptor antagonism (i) with pIC50 greater than 7.5 and at least a 10% reduction in the E2-normalized signal in the AP assay (antagonist mode); and (ii) no more than 10% increase in E2-normalized signal in the AP assay (agonist mode))
2,"C[C@@H]1Cc2c([nH]c3ccccc23)[C@@H](c2ccc3oc(CN4CCC45CC(F)(F)C5)cc3c2)N1CC(C)(C)F [Compound I-58, (1R,3R)-1-[2-[(6,6-difluoro-1-azaspiro[3.3]heptan-1-yl)methyl]benzofuran-5-yl]-2-(2-fluoro-2-methyl-propyl)-3-methyl-1,3,4,9-tetrahydropyrido[3,4-b]indole]",+ (estrogen receptor agonism having (i) at least 80% increase in the E2-normalized signal in the AP assay (agonist mode) and (ii) no more than 80% reduction in the E2-normalized signal in the AP assay (antagonist mode))
3,"CC1CN(Cc2cnc3[nH]cc([C@@H]4c5[nH]c6ccccc6c5C[C@@H](C)N4CC(C)(C)F)c3c2)C1 [Compound I-59, (1R,3R)-2-(2-fluoro-2-methyl-propyl)-3-methyl-1-[5-[(3-methylazetidin-1-yl)methyl]-1H-pyrrolo[2,3-b]pyridin-3-yl]-1,3,4,9-tetrahydropyrido[3,4-b]indole]",+ (estrogen receptor agonism having (i) at least 80% increase in the E2-normalized signal in the AP assay (agonist mode) and (ii) no more than 80% reduction in the E2-normalized signal in the AP assay (antagonist mode))
4,"C[C@@H]1Cc2c([nH]c3ccccc23)[C@@H](c2c[nH]c3ncc(CN4CC(CF)C4)cc23)N1CC(C)(C)F [Compound I-60, (1R,3R)-1-[5-[[3-(fluoromethyl)azetidin-1-yl]methyl]-1H-pyrrolo[2,3-b]pyridin-3-yl]-2-(2-fluoro-2-methyl-propyl)-3-methyl-1,3,4,9-tetrahydropyrido[3,4-b]indole]",+ (estrogen receptor agonism having (i) at least 80% increase in the E2-normalized signal in the AP assay (agonist mode) and (ii) no more than 80% reduction in the E2-normalized signal in the AP assay (antagonist mode))
5,"C[C@@H]1Cc2c([nH]c3ccccc23)[C@@H](c2c[nH]c3ncc(CN4CC5CC5C4)cc23)N1CC(C)(C)F (stereo partly drawn) [Compound I-61, (1R,3R)-1-[5-(3-azabicyclo[3.1.0]hexan-3-ylmethyl)-1H-pyrrolo[2,3-b]pyridin-3-yl]-2-(2-fluoro-2-methyl-propyl)-3-methyl-1,3,4,9-tetrahydropyrido[3,4-b]indole]",+ (estrogen receptor agonism having (i) at least 80% increase in the E2-normalized signal in the AP assay (agonist mode) and (ii) no more than 80% reduction in the E2-normalized signal in the AP assay (antagonist mode))
6,"CC1CN(Cc2cc3cc([C@@H]4c5[nH]c6ccccc6c5C[C@@H](C)N4CC(C)(C)F)sc3[nH]2)C1 [Compound I-62, 2-[(1S,3R)-2-(2-fluoro-2-methyl-propyl)-3-methyl-1,3,4,9-tetrahydropyrido[3,4-b]indol-1-yl]-5-[(3-methylazetidin-1-yl)methyl]-6H-thieno[2,3-b]pyrrole]",++ (estrogen receptor antagonism having (i) between 10% and 80% increase in the E2-normalized signal in the AP assay (agonist mode) and (ii) between 10% and 80% reduction in the E2-normalized signal in the AP assay (antagonist mode))
7,"C[C@@H]1Cc2c([nH]c3ccccc23)[C@@H](c2cc3cc(CN4CC(CF)C4)[nH]c3s2)N1CC(C)(C)F [Compound I-63, 5-[[3-(fluoromethyl)azetidin-1-yl]methyl]-2-[(1S,3R)-2-(2-fluoro-2-methyl-propyl)-3-methyl-1,3,4,9-tetrahydropyrido[3,4-b]indol-1-yl]-6H-thieno[2,3-b]pyrrole]",++ (estrogen receptor antagonism having (i) between 10% and 80% increase in the E2-normalized signal in the AP assay (agonist mode) and (ii) between 10% and 80% reduction in the E2-normalized signal in the AP assay (antagonist mode))
8,"C[C@@H]1Cc2c([nH]c3ccccc23)[C@@H](c2cc3[nH]c(CN4CC(CF)C4)cc3s2)N1CC(C)(C)F [Compound I-64, 5-[[3-(fluoromethyl)azetidin-1-yl]methyl]-2-[(1S,3R)-2-(2-fluoro-2-methyl-propyl)-3-methyl-1,3,4,9-tetrahydropyrido[3,4-b]indol-1-yl]-4H-thieno[3,2-b]pyrrole]",++ (estrogen receptor antagonism having (i) between 10% and 80% increase in the E2-normalized signal in the AP assay (agonist mode) and (ii) between 10% and 80% reduction in the E2-normalized signal in the AP assay (antagonist mode))
9,"C[C@@H]1Cc2c([nH]c3ccccc23)[C@@H](c2cc3[nH]c(C(=O)O)cc3s2)N1CC(C)(C)F.N [Compound I-65, ammonium; 2-[(1S,3R)-2-(2-fluoro-2-methyl-propyl)-3-methyl-1,3,4,9-tetrahydropyrido[3,4-b]indol-1-yl]-4H-thieno[3,2-b]pyrrole-5-carboxylate]",++ (estrogen receptor antagonism having (i) between 10% and 80% increase in the E2-normalized signal in the AP assay (agonist mode) and (ii) between 10% and 80% reduction in the E2-normalized signal in the AP assay (antagonist mode))
10,"CC1CN(Cc2cc3sc([C@@H]4c5[nH]c6ccccc6c5C[C@@H](C)N4CC(C)(C)F)cc3[nH]2)C1 [Compound I-66, 2-[(1S,3R)-2-(2-fluoro-2-methyl-propyl)-3-methyl-1,3,4,9-tetrahydropyrido[3,4-b]indol-1-yl]-5-[(3-methylazetidin-1-yl)methyl]-4H-thieno[3,2-b]pyrrole]",+ (estrogen receptor agonism having (i) at least 80% increase in the E2-normalized signal in the AP assay (agonist mode) and (ii) no more than 80% reduction in the E2-normalized signal in the AP assay (antagonist mode))
11,"C[C@@H]1Cc2c([nH]c3ccccc23)[C@@H](c2cc3[nH]c(CNCCCF)cc3s2)N1CC(C)(C)F [Compound I-67, 3-fluoro-N-[[2-[(1S,3R)-2-(2-fluoro-2-methyl-propyl)-3-methyl-1,3,4,9-tetrahydropyrido[3,4-b]indol-1-yl]-4H-thieno[3,2-b]pyrrol-5-yl]methyl]propan-1-amine]",+ (estrogen receptor agonism having (i) at least 80% increase in the E2-normalized signal in the AP assay (agonist mode) and (ii) no more than 80% reduction in the E2-normalized signal in the AP assay (antagonist mode))
12,"CC[C@H]1CCN(Cc2cc3sc([C@@H]4c5[nH]c6ccccc6c5C[C@@H](C)N4CC(C)(C)F)cc3[nH]2)C1 [Compound I-68, 5-[[(3S)-3-ethylpyrrolidin-1-yl]methyl]-2-[(1S,3R)-2-(2-fluoro-2-methyl-propyl)-3-methyl-1,3,4,9-tetrahydropyrido[3,4-b]indol-1-yl]-4H-thieno[3,2-b]pyrrole]",+ (estrogen receptor agonism having (i) at least 80% increase in the E2-normalized signal in the AP assay (agonist mode) and (ii) no more than 80% reduction in the E2-normalized signal in the AP assay (antagonist mode))
13,"C[C@@H]1Cc2c([nH]c3ccccc23)[C@@H](c2cnc3[nH]c(CN4CC(CF)C4)cc3c2)N1CC(C)(C)F [Compound I-69, (1R,3R)-1-[2-[[3-(fluoromethyl)azetidin-1-yl]methyl]-1H-pyrrolo[2,3-b]pyridin-5-yl]-2-(2-fluoro-2-methyl-propyl)-3-methyl-1,3,4,9-tetrahydropyrido[3,4-b]indole]",++ (estrogen receptor antagonism having (i) between 10% and 80% increase in the E2-normalized signal in the AP assay (agonist mode) and (ii) between 10% and 80% reduction in the E2-normalized signal in the AP assay (antagonist mode))
14,"C[C@@H]1Cc2c([nH]c3ccccc23)[C@@H](c2ccc3[nH]c(CN4CC(CF)C4)cc3n2)N1CC(C)(C)F [Compound I-70, (1S,3R)-1-[2-[[3-(fluoromethyl)azetidin-1-yl]methyl]-1H-pyrrolo[3,2-b]pyridin-5-yl]-2-(2-fluoro-2-methyl-propyl)-3-methyl-1,3,4,9-tetrahydropyrido[3,4-b]indole]",+ (estrogen receptor agonism having (i) at least 80% increase in the E2-normalized signal in the AP assay (agonist mode) and (ii) no more than 80% reduction in the E2-normalized signal in the AP assay (antagonist mode))
15,"CC1CN(Cc2nc3cc([C@@H]4c5[nH]c6ccccc6c5C[C@@H](C)N4CC(C)(C)F)ccc3[nH]2)C1 [Compound I-71, (1R,3R)-2-(2-fluoro-2-methyl-propyl)-3-methyl-1-[2-[(3-methylazetidin-1-yl)methyl]-3H-benzimidazol-5-yl]-1,3,4,9-tetrahydropyrido[3,4-b]indole]",++ (estrogen receptor antagonism having (i) between 10% and 80% increase in the E2-normalized signal in the AP assay (agonist mode) and (ii) between 10% and 80% reduction in the E2-normalized signal in the AP assay (antagonist mode))
